Data as given in patent publication US6514993B1, “Serotonin 5-HT1A and dopamin D2 receptor ligands” (H. Lundbeck A/S, priority 1994, dated 2003).
Counter-ions that a name gives are not always drawn.

Columns and labels:
[1] = molecular target: T1, 5-HT1A receptors (Rattus norvegicus, UniProt P19327); assay: Inhibition of 3H-8-OH-DPAT binding to serotonin 5-HT1A receptors in rat brain in vitro; parameters: 5-HT1A receptors in membranes from rat brain minus cerebellum; from tissue; host or cells: rat brain minus cerebellum (membranes); settings: 3H-8-OH-DPAT 1 nM, membranes from rat brain minus cerebellum
T1 sequence (P19327 1-422): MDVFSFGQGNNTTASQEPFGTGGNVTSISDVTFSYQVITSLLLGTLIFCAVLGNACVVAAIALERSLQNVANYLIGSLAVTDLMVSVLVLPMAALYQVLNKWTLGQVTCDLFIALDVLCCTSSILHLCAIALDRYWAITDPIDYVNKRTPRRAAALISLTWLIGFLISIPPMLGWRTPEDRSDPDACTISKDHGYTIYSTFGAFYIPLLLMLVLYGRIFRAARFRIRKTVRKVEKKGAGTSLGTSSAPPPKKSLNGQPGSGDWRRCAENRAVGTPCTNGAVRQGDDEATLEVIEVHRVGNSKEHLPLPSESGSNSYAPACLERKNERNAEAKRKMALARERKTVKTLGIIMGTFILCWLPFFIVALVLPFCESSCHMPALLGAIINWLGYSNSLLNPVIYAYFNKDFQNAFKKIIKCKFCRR
Experimental: Inhibition of ^3H8-OH-DPAT Binding to Serotonin 5-HT1A Receptors in Rat Brain in vitro
By this method the inhibition by drugs of the binding of the 5-HT1A agonist 3H-8-OH-DPAT (1 nM) to 5-HT1A receptors in membranes from rat brain minus cerebellum is determined in vitro. Accordingly, this is a test for affinity for the 5-HT1A receptor. The test was performed as described by Hyttel et al., Drug Dev. Res. 1988, 15, 389-404.

[2] = molecular target: dopamine D2 receptors (Rattus norvegicus, UniProt P61169); assay: Inhibition of 3H-spiroperidol binding to dopamine D2 receptors in rat brain in vitro; settings: 3H-spiroperidol 0.5 nM, membranes from rat corpus striatum; read-out: 3H Spiroperidole (D2) binding IC50
dopamine D2 receptors, sequence (P61169 1-415 isoform P61169-2): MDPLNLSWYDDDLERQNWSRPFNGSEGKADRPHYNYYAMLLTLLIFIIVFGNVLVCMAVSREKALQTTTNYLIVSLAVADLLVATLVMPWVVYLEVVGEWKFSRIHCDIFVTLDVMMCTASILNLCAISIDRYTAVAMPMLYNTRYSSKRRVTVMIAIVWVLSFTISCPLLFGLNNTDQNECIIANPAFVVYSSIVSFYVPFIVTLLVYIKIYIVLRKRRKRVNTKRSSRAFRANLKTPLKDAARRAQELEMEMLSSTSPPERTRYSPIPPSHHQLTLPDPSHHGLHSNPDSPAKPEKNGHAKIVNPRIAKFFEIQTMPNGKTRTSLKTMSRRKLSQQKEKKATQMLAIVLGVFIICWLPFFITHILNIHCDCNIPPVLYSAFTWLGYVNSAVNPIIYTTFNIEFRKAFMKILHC
Experimental: Inhibition of 3H-spiroperidol Binding to Dopamine D2 Receptors in Rat Brain in vitro
By this method the inhibition by drugs of the binding of the D2 antagonist ^3H-spiroperidol (0.5 nM) to D2 receptors in membranes from rat corpus striatum is determined in vitro. Accordingly, this is a test for affinity for the dopamine D2 receptor.

[3] = Cataleptogenic effect; parameters: species or system rats; settings: rat, in vivo; 1-6 h, sc; read-out: Catalepsy ED50
Excerpt: Evaluation of cataleptogenic effects of the compounds of the invention was made according to the method of Sanchez, C. et al.; Drug Dev. Res. 1991, 22, 239-250.

[4] = molecular target: T1, 5-HT1A receptors; parameters: antagonist effects of a test compound on 5-HT1A receptors in vivo; from tissue; host or cells: whole animal (rat), in vivo behavioural test; settings: partial 5-HT1A agonists; cited from earlier work

In the case of `CC(C)Oc1ccccc1C1CCN(CCCCn2ccn(C34CC5CC(CC(C5)C3)C4)c2=O)CC1.O=C(O)C(=O)O`, the melting point is reported as 116 to 122 °C.
Molecule `O=C1N(CCCCN2CCN(c3ccccc3OS(=O)(=O)C(F)(F)F)CC2)CCN1c1ccc(F)cc1` [Compound 7c, 3-(4-Fluorophenyl)-1-[4-[4-[2-(2-trifluoromethylsulfonyloxy)phenyl]-1-piperazinyl]butan-1-yl]-2-imidazolidinone] has an IC50 [1] of 15 nM, a melting point of 68 to 70 °C and an IC50 [2] of 57 nM. It also gave an ED50 [3] of over 37 µmol/kg.
`CC(C)Oc1ccccc1C1=CCN(CCCCN2CCN(c3ccc(F)cc3)C2=O)CC1.O=C(O)C(=O)O` [Compound 9b, 3-(4-Fluorophenyl)-1-[4-[4-[2-(2-propyloxy)phenyl]-1,2,3,6-tetrahydropyridin-1-yl]butan-1-yl]-2-imidazolidinone oxalate] showed an IC50 [1] of 2.8 nM, a melting point of 150 to 152 °C and an IC50 [2] of 11 nM. For the same molecule, the ED50 [3] was over 37 µmol/kg.
With `CC(C)(C)COc1ccccc1C1CCN(CCCCN2CCN(C3CCCCC3)C2=O)CC1.O=C(O)C(=O)O` the melting point was 162 to 168 °C.
Molecule `CC(C)Oc1ccccc1C1CCN(CCCCCCN2CCN(C3CCCCC3)C2=O)CC1.O=C(O)C(=O)O` [Compound 6e, 3-Cyclohexyl-1-[6-[4-[2-(2-propyloxy)phenyl]-1-piperidinyl]-1-hexyl]-2-imidazolidinone, oxalate] has an IC50 [1] of 20 nM, a melting point of 77 to 79 °C and an IC50 [2] of 16 nM. For the same molecule, the ED50 [3] was over 33 µmol/kg.
`O=C(CCCN1CCC(O)(c2ccc(Cl)cc2)CC1)c1ccc(F)cc1` [haloperidol, reference compound] showed an ED50 [3] of 0.36 µmol/kg.
With `CC(C)Oc1ccccc1C1=CCN(CCCCn2ccn(C3CCCCC3)c2=O)CC1` [Compound 9d, 3-Cyclohexyl-1-[4-[4-[2-(2-propyloxy)phenyl]-1,2,3,6-tetrahydropyridin-1-yl]butan-1-yl]-2,3-dihydroimidazol-2-one] the IC50 [1] was 26 nM and the IC50 [2] was 27 nM.
Molecule `CC(C)Oc1ccccc1N1CCN(CCCN2CCN(c3ccccc3)C2=O)CC1` [Compound 4e, 1-[3-[4-(2-(2-propyloxy)phenyl)-1-piperazinyl]-1-propyl]-3-phenyl-2-imidazolidinone] has an IC50 [1] of 40 nM, a melting point of 167 to 168 °C and an IC50 [2] of 24 nM. For the same molecule, the ED50 [3] was over 34 µmol/kg.
In the case of `CC(C)Oc1ccccc1C1=CCN(CCCCN2CCN(C3CCCCC3)C2=O)CC1.O=C(O)C(=O)O` [Compound 9a, 3-Cyclohexyl-1-[4-[4-[2-(2-propyloxy)phenyl]-1,2,3,6-tetrahydropyridin-1-yl]butan-1-yl]-2-imidazolidinone Oxalate], the IC50 [1] is reported as 9 nM, the IC50 [2] is reported as 8.7 nM and the ED50 [3] is reported as over 38 µmol/kg.
In the case of `O=C1N(CCCCN2CCC(c3ccccc3OS(=O)(=O)C(F)(F)F)CC2)CCN1c1ccc(F)cc1` [Compound 7a, 3-(4-Fluorophenyl)-1-[4-[4-[2-(2-trifluoromethylsulfonyloxy)phenyl]-1-piperidinyl]butan-1-yl]-2-imidazolidinone], the IC50 [1] is reported as 37 nM and the IC50 [2] is reported as 41 nM.
In the case of `O=C1N(CCCCN2CCN(c3ccccc3OC3CCCC3)CC2)CCN1c1ccc(F)cc1` [Compound 4d, 1-[4-[4-(2-Cyclopentyloxyphenyl)-1-piperazinyl]butan-1-yl]-3-(4-fluorophenyl)-2-imidazolidinone], the IC50 [1] is reported as 4 nM, the melting point is reported as 111 to 116 °C and the IC50 [2] is reported as 15 nM. The ED50 [3] was over 42 µmol/kg.
With `CC(C)Oc1ccccc1C1CCN(CCCCN2CCN(C(C)C)C2=O)CC1.O=C(O)C(=O)O` [Compound 6d, 3-(2-Propyl)-1-[4-[4-[2-(2-propyloxy)phenyl]-1-piperidinyl]-1-butyl]-2-imidazolidinone, oxalate] the IC50 [1] was 5 nM, the melting point was 82 to 84 °C and the IC50 [2] was 7.7 nM. It also gave an ED50 [3] of over 41 µmol/kg.
Molecule `CC(C)Oc1ccccc1C1CCN(CCCCn2ccn(C3CCCCC3)c2=O)CC1.O=C(O)C(=O)O` [Compound 6h, 3-Cyclohexyl-1-[4-[4-[2-(2-propyloxy)phenyl]-1-piperidinyl]butan-1-yl]-1,3-dihydroimidazol-2-one, oxalate] has an IC50 [1] of 4.1 nM, a melting point of 68 to 71 °C and an IC50 [2] of 10 nM. The ED50 [3] was over 38 µmol/kg.
`O=C1N(CCCCN2CCN(c3ccccc3OS(=O)(=O)C(F)(F)F)CC2)CCN1C1CCCCC1` [Compound 7b, 3-Cyclohexyl-1-[4-[4-[2-(2-trifluoromethylsulfonyloxy)phenyl]-1-piperazinyl]butan-1-yl]-2-imidazolidinone, hydrochloride] gave an IC50 [1] of 42 nM, an IC50 [2] of 49 nM and an ED50 [3] of over 35 µmol/kg.
For `O=C1CC2(CCCC2)CC(=O)N1CCCCN1CCN(c2ncccn2)CC1` [buspirone, 8-[4-[4-(2-pyrimidyl)-1-piperazinyl]butyl]-8-azaspiro[4,5]decane-7,9-dione], the “Inhibition of 5-MeO-DMT-induced 5-HT syndrome (general statement)” value [4] is listed as “inhibit the characteristic 5-HT syndrome produced by 5-MeO DMT”.
With `O=C(O)C(=O)O.O=C1N(CCCCN2CCC(c3ccccc3OCC3CC3)CC2)CCN1C1CCCCC1` [Compound 6f, 3-Cyclohexyl-1-[4-[4-[2-(cyclopropylmethoxy)phenyl]-1-piperidinyl]butan-1-yl]-2-imidazolidinone, oxalate] the IC50 [1] was 26 nM, the melting point was 186 to 193 °C and the IC50 [2] was 37 nM.
In the case of `CC(C)Oc1ccccc1N1CCN(CCCCN2CCN(c3ccc(F)cc3)C2=O)CC1` [Compound 4b, 3-(4-Fluorophenyl)-1-[4-[4-[2-(2-propyloxy)phenyl]-1-piperazinyl]butan-1-yl]-2-imidazolidinone], the IC50 [1] is reported as 2.2 nM, the melting point is reported as 135 to 137 °C and the IC50 [2] is reported as 3.9 nM. For the same molecule, the ED50 [3] was over 44 µmol/kg.
`CC(C)Oc1ccccc1N1CCN(CCCCN2CCN(C3CCCCC3)C2=O)CC1.O=C(O)C(=O)O` [Compound 4a, 3-Cyclohexyl-1-[4-[4-[2-(2-propyloxy)phenyl]-1-piperazinyl]butan-1-yl]-2-imidazolidinone, Oxalate] showed an IC50 [1] of 1.8 nM, an IC50 [2] of 6.4 nM and an ED50 [3] of over 38 µmol/kg.
With `CC(C)Oc1ccccc1C1CCN(CCCCN2CCN(c3ccc(F)cc3)C2=O)CC1.O=C(O)C(=O)O` [Compound 6a, 3-(4-Fluorophenyl)-1-[4-[4-[2-(2-propyloxy)phenyl]-1-piperidinyl]butan-1-yl]-2-imidazolidinone, Oxalate] the IC50 [1] was 4.8 nM, the IC50 [2] was 7.9 nM and the ED50 [3] was over 44 µmol/kg.
With `CC(C)Oc1ccccc1C1=CCN(CCCCn2ccn(C34CC5CC(CC(C5)C3)C4)c2=O)CC1.O=C(O)C(=O)O` the melting point was 104 to 109 °C.
With `Cl.Cl.O=C1N(CCCCN2CCN(c3ccccc3OC3CCCC3)CC2)CCN1C1CCCCC1` [Compound 4c, 3-Cyclohexyl-1-[4-[4-(2-cyclopentyloxyphenyl)-1-piperazinyl]butan-1-yl]-2-imidazolidinone, dihydrochloride] the IC50 [1] was 5.4 nM, the melting point was 182 to 193 °C and the IC50 [2] was 13 nM. For the same molecule, the ED50 [3] was over 37 µmol/kg.
Molecule `CC(C)Oc1ccccc1C1CCN(CCCN2CCN(C3CCCCC3)C2=O)CC1.O=C(O)C(=O)O` [Compound 6c, 3-Cyclohexyl-1-[3-[4-[2-(2-propyloxy)phenyl]-1-piperidinyl]-1-propyl]-2-imidazolidinone, oxalate] has an IC50 [1] of 35 nM, a melting point of 136 to 139 °C and an IC50 [2] of 110 nM.
For `CC(C)Oc1ccccc1C1CCN(CCCCN2CCN(C3CCCCC3)C2=O)CC1.O=C(O)C(=O)O` [Compound 6b, 3-Cyclohexyl-1-[4-[4-[2-(2-propyloxy)phenyl]-1-piperidinyl]butan-1-yl]-2-imidazolidinone, oxalate], the IC50 [1] was 5.4 nM, the melting point was 138 to 141 °C and the IC50 [2] was 8.7 nM. It also gave an ED50 [3] of over 38 µmol/kg.
Work on `O=C1N(CCCCN2CCN(c3ccccc3OS(=O)(=O)C(F)(F)F)CC2)CCN1C1CCCCC1` (as salt: hydrochloride) [Compound 7b, 3-Cyclohexyl-1-[4-[4-[2-(2-trifluoromethylsulfonyloxy)phenyl]-1-piperazinyl]butan-1-yl]-2-imidazolidinone, hydrochloride] yielded a melting point of 153 to 154 °C.
